Test results taken from patent US20240368664A1, “LIVE YEAST BIOSENSORS AND METHODS OF USE THEREOF” (priority 2021, published 2024).
No end group written: not given here.

Experiments:
[1] = test system: mutant SsSte2; assay type: cell-based, Scheffersomyces stipites
[2] = test system: SsSte2 mutants; assay type: cell-based, Scheffersomyces stipites

**Q.** How did the EC50 [1] turn out when KHWPQIAQFAPS [nucleocapsid epitope] was run?
**A.** The EC50 was ~10 µM.

**Q.** What about the “biosensor signal compared to signal in the presence of water” value [2] of the same sequence?
**A.** The value was “over twice as strong”.
